Columns and labels:
HEK293sieSTAT3(Y640F) [1] = assay: drug sensitivity score (DSS), viability CellTiter-Glo (DSS (dimensionless)); higher = more growth inhibition; extreme values may be limits of the assay; details: 72 h; STAT3 variant: Y640F (constitutively active)
Method in brief: (§1)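 Compounds were acoustically pre-plated in 384-well plates at 5 concentrations spaced by 10-fold dilutions, and HEK293 cells overexpressing wild-type or mutant STAT3 and carrying a STAT3-dependent luciferase reporter were added at 100,000 cells/ml in 20 μl. After 72 hours at 37°C and 5% CO2, the plates were read on a PHERAstar FS for CellTox Green fluorescence (485/520 nm) and then CellTiter-Glo luminescence. A drug sensitivity score derived from dose-response curve area was calculated in Breeze from values normalised to negative and positive control wells.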

HEK293sieSTAT3(wt) [2] = assay: as above; details: 72 h; STAT3 variant: wild type
Method in brief: as §1

HEK293sieSTAT3(Y640F) [3] = assay: drug sensitivity score (DSS), cytotoxicity CellTox Green (DSS (dimensionless)); higher = more cytotoxic; extreme values may be limits of the assay; details: 72 h; STAT3 variant: Y640F (constitutively active)
Method in brief: as §1

HEK293sieSTAT3(wt) [4] = assay: as above; details: 72 h; STAT3 variant: wild type
Method in brief: as §1

SMILES | drug sensitivity score (HEK293sieSTAT3(Y640F) [1]) | drug sensitivity score (HEK293sieSTAT3(wt) [2]) | drug sensitivity score (HEK293sieSTAT3(Y640F) [3]) | drug sensitivity score (HEK293sieSTAT3(wt) [4])
CCN1CCN(c2ccc(Nc3cc(N(C)C(=O)Nc4c(Cl)c(OC)cc(OC)c4Cl)ncn3)cc2)CC1 [NVP-BGJ398] (top concentration tested 1000 nM) | 0.2 | 0 | 0 | 2.48
COc1ccc(-c2ccc3ncc4c(c3c2)n(-c2ccc(N3CCNCC3)c(C(F)(F)F)c2)c(=O)n4C)cn1 [NVP-BGT226] (top concentration tested 1000 nM) | 24.6 | 28 | 4.28 | 9.37
CNC(=O)c1ccc(-c2cnc3ncc(Cc4ccc5ncccc5c4)n3n2)cc1F [NVP-INC280] (top concentration tested 1000 nM) | 3.02 | 2.77 | 0 | 0
CC1(C)CCC(c2ccc(Cl)cc2)=C(CN2CCN(c3ccc(C(=O)NS(=O)(=O)c4ccc(N[C@H](CCN5CCOCC5)CSc5ccccc5)c(S(=O)(=O)C(F)(F)F)c4)cc3)CC2)C1 [Navitoclax] (top concentration tested 10000 nM) | 0 | 0 | 0 | 0
COc1nc(N)nc2c1ncn2[C@@H]1O[C@H](CO)[C@@H](O)[C@@H]1O [Nelarabine] (top concentration tested 10000 nM) | 0.7 | 1.07 | 0 | 0
CCOc1cc2ncc(C#N)c(Nc3ccc(OCc4ccccn4)c(Cl)c3)c2cc1NC(=O)/C=C/CN(C)C [Neratinib] (top concentration tested 1000 nM) | 3.35 | 1.99 | 0 | 0
Cc1cn(-c2cc(NC(=O)c3ccc(C)c(Nc4nccc(-c5cccnc5)n4)c3)cc(C(F)(F)F)c2)cn1 [Nilotinib] (top concentration tested 10000 nM) | 3.13 | 3.74 | 0.16 | 0
CC1(C)NC(=O)N(c2ccc([N+](=O)[O-])c(C(F)(F)F)c2)C1=O [Nilutamide] (top concentration tested 10000 nM) | 2.68 | 0.69 | 0 | 0.74
COC(=O)c1ccc2c(c1)NC(=O)/C2=C(\Nc1ccc(N(C)C(=O)CN2CCN(C)CC2)cc1)c1ccccc1 [Nintedanib] (top concentration tested 10000 nM) | 8 | 9.79 | 3.45 | 6.55
NC(=O)c1cccc2cn(-c3ccc([C@@H]4CCCNC4)cc3)nc12 [Niraparib] (top concentration tested 10000 nM) | 8.57 | 13.3 | 1.69 | 9.84
COc1ccc(C2=N[C@@H](c3ccc(Cl)cc3)[C@@H](c3ccc(Cl)cc3)N2C(=O)N2CCNC(=O)C2)c(OC(C)C)c1 [Nutlin-3] (top concentration tested 10000 nM) | 1.89 | 1.15 | 0.07 | 0.87
COc1cccc2cc(-c3nc([C@H]4CC[C@H](C(=O)O)CC4)n4ncnc(N)c34)[nH]c12 [OSI-027] (top concentration tested 10000 nM) | 7.79 | 6.8 | 0 | 0
O=C(Nc1ccc(OC(F)(F)F)cc1)c1sccc1NCc1ccnc2ccccc12 [OSI-930] (top concentration tested 2500 nM) | 0.46 | 1.31 | 0 | 0
CC(=O)c1cnc2ccc(-c3cc(Cl)c(O)c(Cl)c3)nc2c1N[C@H]1CC[C@H](CN(C)C)CC1 [OTSSP167] (top concentration tested 1000 nM) | 21.1 | 21.2 | 5.22 | 5.73
Cc1sc2c(c1C)C(c1ccc(Cl)cc1)=N[C@@H](CC(=O)Nc1ccc(O)cc1)c1nnc(C)n1-2 [OTX015] (top concentration tested 10000 nM) | 12.2 | 10.5 | 3.12 | 10.9
COC1=CC(c2cc3ccccc3[nH]2)=N/C1=C\c1[nH]c(C)cc1C [Obatoclax] (top concentration tested 10000 nM) | 1.57 | 2.27 | 0 | 0
O=C(c1cc(Cc2n[nH]c(=O)c3ccccc23)ccc1F)N1CCN(C(=O)C2CC2)CC1 [Olaparib] (top concentration tested 10000 nM) | 4.22 | 3.58 | 0 | 0.67
COC(=O)C[C@](O)(CCCC(C)(C)O)C(=O)O[C@@H]1C(OC)=C[C@]23CCCN2CCc2cc4c(cc2[C@H]13)OCO4 [Omacetaxine] (top concentration tested 10000 nM) | 28.9 | 32.9 | 1.64 | 3.27
COc1ncc(-c2ccc3nccc(-c4ccnnc4)c3c2)cc1NS(=O)(=O)c1ccc(F)cc1F [Omipalisib] (top concentration tested 1000 nM) | 18.3 | 22.1 | 0 | 6.37
CC(C)c1cc(C(=O)N2Cc3ccc(CN4CCN(C)CC4)cc3C2)c(O)cc1O [Onalespib] (top concentration tested 2500 nM) | 20.9 | 24.5 | 7.91 | 18.9
COC[C@H](NC(=O)c1cnc(C)s1)C(=O)N[C@@H](COC)C(=O)N[C@@H](Cc1ccccc1)C(=O)[C@@]1(C)CO1 [Oprozomib] (top concentration tested 2500 nM) | 23.6 | 28.8 | 21.5 | 28.3
Cc1[nH]c(/C=C2\C(=O)Nc3ccccc32)c(C)c1CCC(=O)O [Orantinib] (top concentration tested 10000 nM) | 1.85 | 1.33 | 18.4 | 21.6

SMILES | drug sensitivity score (HEK293sieSTAT3(Y640F) [1]) | drug sensitivity score (HEK293sieSTAT3(wt) [2]) | drug sensitivity score (HEK293sieSTAT3(Y640F) [3]) | drug sensitivity score (HEK293sieSTAT3(wt) [4])
CNC(=O)c1ccc2cc([C@@]3(O)CCn4cncc43)ccc2c1 [Orteronel] (top concentration tested 10000 nM) | 0 | 0 | 0 | 0
C=CC(=O)Nc1cc(Nc2nccc(-c3cn(C)c4ccccc34)n2)c(OC)cc1N(C)CCN(C)C [Osimertinib] (top concentration tested 2500 nM) | 6.46 | 8.88 | 0.47 | 6.55
O=C(O)C(=O)O.[NH-][C@@H]1CCCC[C@H]1[NH-].[Pt+2] [Oxaliplatin] (top concentration tested 100000 nM) | 16.9 | 19.3 | 5.26 | 12
C=CCc1cccc(/C=N/NC(=O)CN2CCN(Cc3ccccc3)CC2)c1O [PAC-1] (top concentration tested 10000 nM) | 4.7 | 7.56 | 0 | 3.52
O=C(Nc1cccnc1)N1CCC(Cc2cccc(Oc3ccc(C(F)(F)F)cn3)c2)CC1 [PF-3845] (top concentration tested 10000 nM) | 1.51 | 3.05 | 0 | 0
COc1ccccc1S(=O)(=O)Nc1ccc2c(c1)CN(C)C(=O)N2 [PFI-1] (top concentration tested 10000 nM) | 5.5 | 5.96 | 0.33 | 6.8
CN1CCN(c2cc(C(=O)Nc3ccc4c(c3)-c3c(c(C(N)=O)nn3-c3ccc(F)cc3)CC4)c(Cl)cn2)CC1 [PHA 408] (top concentration tested 10000 nM) | 9.12 | 8.88 | 5.61 | 8.63
CCn1nnc2c(N3CCOCC3)nc(-c3ccc(NC(=O)Nc4ccc(C(=O)N5CCN(C)CC5)cc4)cc3)nc21 [PKI-402] (top concentration tested 2500 nM) | 16.7 | 16.8 | 0 | 5.48
O=C(Nc1cc(Cl)cc2c1[nH]c1cnccc12)c1cccnc1 [PS-1145] (top concentration tested 25000 nM) | 0 | 3.94 | 1.94 | 0.08
COc1cc(Br)c(Nc2nc(-c3c(C)nc4ncccn34)cs2)c(Br)c1 [PTC-209] (top concentration tested 10000 nM) | 16 | 15.7 | 0.1 | 2.2
CC(=O)O[C@H]1C(=O)[C@@]2(C)[C@H]([C@H](OC(=O)c3ccccc3)[C@]3(O)C[C@H](OC(=O)[C@H](O)[C@@H](NC(=O)c4ccccc4)c4ccccc4)C(C)=C1C3(C)C)[C@]1(OC(C)=O)CO[C@@H]1C[C@@H]2O [Paclitaxel] (top concentration tested 1000 nM) | 16.4 | 23.2 | 0.91 | 16.8
C1=N/C2=N/c3ccc(OCCN4CCCC4)c(c3)COC/C=C/COCc3cccc(c3)C(=C1)N2 [Pacritinib] (top concentration tested 10000 nM) | 12.1 | 11.1 | 6.22 | 10.8
CC(=O)c1c(C)c2cnc(Nc3ccc(N4CCNCC4)cn3)nc2n(C2CCCC2)c1=O [Palbociclib] (top concentration tested 10000 nM) | 5.65 | 6.99 | 1.93 | 7.3
COc1ccc(COc2cc3oc(=O)c4cc(C(C)O)ccc4c3cc2OC)cc1 (configuration not stated) [Palomid-529] (top concentration tested 10000 nM) | 2.18 | 2.21 | 0 | 3.06
Cc1[nH]c2ccccc2c1CCNCc1ccc(/C=C/C(=O)NO)cc1 [Panobinostat] (top concentration tested 1000 nM) | 20.6 | 20.4 | 11.6 | 17.8
C/C(=C\c1csc(C)n1)[C@@H]1C[C@@H]2O[C@]2(C)CCC[C@H](C)[C@H](O)[C@@H](C)C(=O)C(C)(C)[C@@H](O)CC(=O)O1 [Patupilone] (top concentration tested 1000 nM) | 19.1 | 21.9 | 4.17 | 15.5
Cc1ccc(Nc2nccc(N(C)c3ccc4c(C)n(C)nc4c3)n2)cc1S(N)(=O)=O [Pazopanib] (top concentration tested 10000 nM) | 0.04 | 0.89 | 0 | 0
CCOc1cc2ncc(C#N)c(Nc3ccc(F)c(Cl)c3)c2cc1NC(=O)/C=C/CN(C)C [Pelitinib] (top concentration tested 2500 nM) | 6.05 | 9.21 | 1.79 | 3.88
Nc1nc2[nH]cc(CCc3ccc(C(=O)N[C@@H](CCC(=O)O)C(=O)O)cc3)c2c(=O)[nH]1 [Pemetrexed] (top concentration tested 10000 nM) | 12.9 | 13.3 | 0 | 2.93
OC[C@H]1O[C@@H](n2cnc3c2N=CNC[C@H]3O)C[C@@H]1O [Pentostatin] (top concentration tested 10000 nM) | 0.02 | 1.4 | 0 | 0
CCCCCCCCCCCCCCCCCCOP(=O)([O-])OC1CC[N+](C)(C)CC1 [Perifosine] (top concentration tested 2500 nM) | 5.21 | 2.19 | 0 | 0.08
